# Test results from patent US20170340658A1, “COMBINED USE OF A CHEMOTHERAPEUTIC AGENT AND A CYCLIC DINUCLEOTIDE FOR CANCER TREATMENT” (INVIVOGEN, priority 2014, published 2017).
# Legend:
# Panc02 pancreatic tumors = experiment: Orthotopic Panc02 pancreatic tumors in mice, intercalated combinations (Example 8); type: in vivo, mouse; conditions: for mean tumor volume: Day 30, CDN 5 mg/kg i.t. Day 9, i.v. Days 16, 23, gemcitabine 100 mg/kg i.p. Days 12, 19, 26; for # Mice with metastases / Average # metastases per mouse: Day 30 post-implantation, CDN 5 mg/kg, gemcitabine 100 mg/kg i.p.
# Method: • Species evaluated: mouse • Tumor model: Panc02 • Treatment tested: intercalated combinations of a CDN (either CL592, CL614 or CL656) and gemcitabine • Reference compounds: gemcitabine, CL592, CL614 and CL656 • Parameters evaluated: tumor growth, and incidence of metastases
# On Day 1, 55 mice (C57/BL6; male; 10 weeks old; 23 g to 25 g) each received an intrapancreatic injection of Panc02 cells (1×10^6 cells in 50 μL serum-free medium).
# Day 9: Groups 3 to 8 each received an intratumoral injection of the appropriate CDN (CL592, CL614 or CL656, respectively; 50 μL; 5 mg/kg in 0.9% saline)
# Day 12: Group 2 and Groups 6 to 8 each received an intraperitoneal injection of gemcitabine (200 μL; 100 mg/kg in 0.9% saline)
# Day 16: Groups 3 to 8 each received an intravenous injection of the appropriate CDN (CL592, CL614 or CL656, respectively; 50 μL; 5 mg/kg in 0.9% saline)
# Day 19: Group 2 and Groups 6 to 8 were treated as on Day 12.
# Day 23: Groups 3 to 8 were treated as on Day 16.
# Day 26: Group 2 and Groups 6 to 8 were treated as on Days 12 and 19.
# Day 30: Each mouse was checked for tumor presence and metastases.
# Panc02 tumors = experiment: Murine model of orthotopic Panc02 pancreatic tumors (Example 4); type: in vivo, mouse; conditions: for INCIDENCE OF METASTASIS / PRE-SACRIFICE MORTALITY: Day 34
# Excerpt: • Species evaluated: mouse • Tumor model: Panc02 (murine pancreatic tumor cell line) • Treatments tested: gemcitabine monotherapy, c-AIMP monotherapy, and gemcitabine combined with c-AIMP • Clinical parameters evaluated: tumor volume, incidence of metastasis and mortality • Administration routes evaluated: intravenous (i.v.) or intratumoral (i.t.) injection (depending on experiment) • On Day 1, 30 mice (C57BL/6; male) received an orthotopic injection of Panc02 tumor cells (1×10^6) in their pancreas. The mice were then divided into six groups of five animals. Each group received a different treatment, as outlined below: • Group 1: saline (by i.v. injection) on Days 7, 10, 14, 17, 21 and 24; • Group 2: gemcitabine monotherapy (100 mg/kg; i.p.); on Days 7, 10, 14, 17, 21 and 24; • Group 3: c-AIMP monotherapy (25 mg/kg; i.t.) on Days 7 and 21; • Group 4: c-AIMP monotherapy (25 mg/kg; i.v.) on Days 7, 14 and 21; • Group 5: c-AIMP (25 mg/kg; i.t.) followed (5 h later) by gemcitabine (100 mg/kg; i.p.) on Day 7; and gemcitabine (100 mg/kg; i.p.) on Days 10, 14, 17, 21 and 24; • Group 6: c-AIMP (25 mg/kg; i.v.) followed (5 h later) by gemcitabine (100 mg/kg; i.p.) on Day 7; and gemcitabine (100 mg/kg; i.p.) on Days 10, 14, 17, 21 and 24;
# At days 7, 21/24, 28 and 34, the mice were assessed for tumor volume, incidence of metastasis and mortality.
# IL-6 = IL-6 induction in sera of CDN-treated mice, ELISA (Example 3); type: in vivo, mouse; conditions: 10 mg/kg i.v., 4 h post-treatment, FIG. 6
# Excerpt: Interleukin-6 was quantified using an enzyme-linked immunoassay (ELISA) according to the manufacturer's instructions (R&D Systems).
# (§1) • Species evaluated: mouse • Cyclic dinucleotides tested: CL604, CL606, CL609, CL611 and CL614 • Reference compound: c-AIMP and saline • Cytokines evaluated: IFN-α/β (using RAW ISG54 reporter cells) and IL-6 (by ELISA)
# (§2) Twenty-one mice (Swiss; female; mean age: 8 weeks) were divided into seven groups of three: one group served as control (saline) and the other six groups were each treated with a cyclic dinucleotide (either c-AIMP, CL604, CL606, CL609, CL611 or CL614). On Day −7, blood samples for basal cytokine levels were collected from all mice and stored at −20° C. until analysis. On Day 1, the mice were treated with either 200 μL of physiologic serum (containing 0.9% NaCl) or 200 μL of a solution of a cyclic dinucleotide (dose: 10 mg/kg) in physiologic serum (containing 0.9% NaCl), by intravenous (i.v.) injection. Blood samples were collected from the mice at 4 h post-injection, and then stored at −20° C. until analysis. Cytokine induction was measured in the sera from the blood samples.
# Type I interferons = experiment: Type I interferon induction in sera of CDN-treated mice (Example 3); type: in vivo, mouse; conditions: 10 mg/kg i.v., 4 h post-treatment, FIG. 5
# Excerpt: as §1, §2
# DT6606 pancreatic tumors = conditions: Day 36 vs pre-treatment tumor volume; CL592 i.t. Day 13, 5 mg/kg i.v. Days 20, 27; gemcitabine 100 mg/kg i.p. Days 16, 23, 30
# Method: • Tumor line evaluated: DT6606 (Partecke, 2011) • Treatment tested: intercalated combination of CL592 and gemcitabine • Reference compound: gemcitabine • Parameter evaluated: tumor growth
# On Day 1, 20 mice (C57/BL6; female; 10 weeks old; 18 g to 22 g) received an intrapancreatic injection of DT6606 cells (5×10^5 cells in 30 μL serum-free medium). One mouse was sacrificed before treatment due to a renal deformation.
# The groups were then treated according to the treatment regimen below.
# Day 13: Groups 1 and 2 received an intratumoral injection of saline solution (50 μL), and Groups 3 and 4, an intratumoral injection of CL592 (50 μL; 2.5 mg/mL in saline buffer;).
# Day 16: Groups 2 and 4 received an intraperitoneal tail injection of gemcitabine (100 μL solution/100 g body mass; 10 mg/mL in saline buffer; dose: 100 mg/kg).
# Day 20: Groups 3 and 4 received an intravenous tail injection of CL592 (200 μL; 0.5 mg/mL in saline buffer; dose: 5 mg/kg).
# Day 23: Groups 2 and 4 were treated as on Day 16.
# Day 27: Groups 3 and 4 were treated as on Day 20.
# Day 30: Groups 2 and 4 were treated as on Days 16 and 23.
# Day 36: Each mouse was checked for tumor presence. The volume of each observed tumor was measured and the mice were then sacrificed.
# Tumor growth (expressed as a percentage) was calculated as follows:
# (([tumor volume at day 36]−[pre-treatment tumor volume])/[pre-treatment tumor volume])×100%
# PC-1.0 tumors = experiment: Hamster model of orthotopic PC-1.0 pancreatic tumors (Example 5); type: in vivo; conditions: gemcitabine monotherapy 50 mg/Kg i.p.
# Excerpt: • Species evaluated: hamster • Tumor model: PC-1.0 (hamster pancreatic tumor cell line (Egami, Tomioka, Tempero, Kay, & Pour, 1991)) • Treatments tested: gemcitabine monotherapy, and gemcitabine combined with c-AIMP • Clinical parameters evaluated: tumor volume, incidence of metastasis and mortality • Administration routes evaluated: intravenous (i.v.) vs. intratumoral (i.t.) injection (depending on experiment) for CL592 • On Day 1, 22 hamsters (Golden Syrian) received an orthotopic injection of PC-1.0 tumor cells (1×10^6) in the tail of their pancreas. The hamsters were then divided into four groups of five or six animals. Each group received a different treatment, as outlined below: • Group 1 (n=5) received saline (by i.v. injection) on Days 8, 15 and 22; • Group 2 (n=6): c-AIMP (25 mg/Kg; i.v.) followed by gemcitabine (50 mg/Kg; i.p.) on Day 8; and gemcitabine (50 mg/Kg; i.p.) on Days 15 and 22; • Group 3 (n=6): c-AIMP (25 mg/Kg; i.t.) followed by gemcitabine (50 mg/Kg; i.p.) on Day 8; and gemcitabine (50 mg/Kg; i.p.) on Days 15 and 22; • Group 4 (n=5): gemcitabine monotherapy (50 mg/Kg; i.p.) at Days 8, 15 and 22.
# At days 8, 21/24, 28 and 34, the mice were assessed for tumor volume, incidence of metastasis and mortality.
# [1] = c-AIMP 25 mg/kg i.t., alone or with gemcitabine 100 mg/kg i.p.
# [2] = c-AIMP 25 mg/kg i.v., alone or with gemcitabine 100 mg/kg i.p.
# [3] = gemcitabine monotherapy 100 mg/kg i.p.
smiles,measurement,setting,value
"Nc1ncnc2c1ncn2C1OC2COP(=O)(S)O[C@@H]3C(COP(=O)(S)O[C@H]2[C@H]1F)OC(n1cnc2c(=O)[nH]cnc21)[C@@H]3F (mixture of isomers) [CL656, c-[2′FdAMP(S)-2′FdIMP(S)]]",mean tumor volume,Panc02 pancreatic tumors,340.2 mm^3
same,# Mice with metastases,Panc02 pancreatic tumors,40% (2/5)
same,Average # metastases per mouse,Panc02 pancreatic tumors,3
"Nc1ncnc2c1ncn2[C@@H]1O[C@@H]2COP(=O)(O)O[C@H]3[C@@H](O)[C@H](n4cnc5c(=O)[nH]cnc54)O[C@@H]3COP(=O)(O)O[C@H]2[C@H]1O [CL592, c-AIMP]",INCIDENCE OF METASTASIS,Panc02 tumors; [1],0%
same,PRE-SACRIFICE MORTALITY,Panc02 tumors; [1],0%
same,INCIDENCE OF METASTASIS,Panc02 tumors; [2],0%
same,PRE-SACRIFICE MORTALITY,Panc02 tumors; [2],0%
same,reducing tumor growth,"Panc02 tumors; FIG. 7, c-AIMP 25 mg/kg i.v. or i.t., comparison among all treatments",most effective ones at reducing tumor growth
same,mean tumor volume,Panc02 pancreatic tumors,231.0 mm^3
same,# Mice with metastases,Panc02 pancreatic tumors,20% (1/5)
same,Average # metastases per mouse,Panc02 pancreatic tumors,2
"Nc1ncnc2c1ncn2C1OC2COP(=O)(O)O[C@H]3C(n4cnc5c(=O)[nH]cnc54)OC(COP(=O)(O)O[C@@H]1[C@@H]2O)[C@H]3O (stereo partly drawn) [CL611, (2′,2′)c-AIMP]",induction of IL-6 in sera,IL-6,all of the cyclic dinucleotides except CL611 induced IL-6
same,induction of Type I interferons in sera,Type I interferons,all of the tested cyclic dinucleotides except CL611 strongly induced Type I interferons
"Nc1ncnc2c1ncn2C1OC2COP(=O)(O)O[C@@H]3C(COP(=O)(O)O[C@H]2[C@H]1F)OC(n1cnc2c(=O)[nH]cnc21)[C@@H]3F (stereo partly drawn) [CL614, c-(2′FdAMP-2′FdIMP)]",mean tumor volume,Panc02 pancreatic tumors,318.6 mm^3
same,# Mice with metastases,Panc02 pancreatic tumors,40% (2/5)
same,Average # metastases per mouse,Panc02 pancreatic tumors,5
"Nc1ccn([C@@H]2O[C@H](CO)[C@@H](O)C2(F)F)c(=O)n1 [gemcitabine, Gemcitabine]",mean tumor growth,DT6606 pancreatic tumors,22%
same,INCIDENCE OF METASTASES,PC-1.0 tumors,100%
same,"NUMBER OF METASTASES PER HAMSTER, Hamster 1",PC-1.0 tumors,13
same,"NUMBER OF METASTASES PER HAMSTER, Hamster 2",PC-1.0 tumors,15
same,"NUMBER OF METASTASES PER HAMSTER, Hamster 3",PC-1.0 tumors,3
same,"NUMBER OF METASTASES PER HAMSTER, Hamster 4",PC-1.0 tumors,10
same,"NUMBER OF METASTASES PER HAMSTER, Hamster 5",PC-1.0 tumors,5
same,INCIDENCE OF METASTASES,PC-1.0 tumors; listed as GemC,100%
same,INCIDENCE OF METASTASIS,Panc02 tumors; [3],50%
same,PRE-SACRIFICE MORTALITY,Panc02 tumors; [3],20%
same,PRE-SACRIFICE MORTALITY,"Panc02 tumors; gemcitabine monotherapy 100 mg/kg i.p., listed as GemC",20%
same,mean tumor volume,Panc02 pancreatic tumors,380.7 mm^3
same,# Mice with metastases,Panc02 pancreatic tumors,88% (7/8)
same,Average # metastases per mouse,Panc02 pancreatic tumors,13
